How the values were obtained:
[1] = molecular target: T1, Glucocorticoid receptor (Rattus norvegicus, UniProt P06536); test: Inhibition of dexamethasone-induced glucocorticoid receptor mediated tyrosine aminotransferase in rat hepatocytes; format: functional, cell-based, Hepatocyte
T1 sequence (P06536 whole entry): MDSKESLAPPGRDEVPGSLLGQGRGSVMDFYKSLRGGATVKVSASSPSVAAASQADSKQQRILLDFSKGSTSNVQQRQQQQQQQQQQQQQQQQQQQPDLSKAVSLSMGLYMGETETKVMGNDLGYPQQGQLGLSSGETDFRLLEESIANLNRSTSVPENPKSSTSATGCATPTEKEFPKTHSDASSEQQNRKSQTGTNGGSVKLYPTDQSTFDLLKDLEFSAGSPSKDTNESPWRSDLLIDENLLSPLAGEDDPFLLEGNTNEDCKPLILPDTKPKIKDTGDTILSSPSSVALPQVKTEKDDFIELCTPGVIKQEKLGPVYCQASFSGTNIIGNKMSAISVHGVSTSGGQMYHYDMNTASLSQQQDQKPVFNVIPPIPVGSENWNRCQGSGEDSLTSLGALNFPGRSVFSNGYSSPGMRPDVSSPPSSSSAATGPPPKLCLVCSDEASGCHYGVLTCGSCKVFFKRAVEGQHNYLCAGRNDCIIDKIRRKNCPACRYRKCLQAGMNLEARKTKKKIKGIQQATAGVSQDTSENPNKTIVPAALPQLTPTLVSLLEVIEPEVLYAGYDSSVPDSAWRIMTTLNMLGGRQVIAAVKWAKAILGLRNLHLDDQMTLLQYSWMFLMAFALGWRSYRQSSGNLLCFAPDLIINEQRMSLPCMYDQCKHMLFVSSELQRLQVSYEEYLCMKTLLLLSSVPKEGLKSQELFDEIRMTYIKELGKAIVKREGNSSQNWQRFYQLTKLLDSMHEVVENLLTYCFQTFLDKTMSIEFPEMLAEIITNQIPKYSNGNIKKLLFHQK

[2] = molecular target: T2, Glucocorticoid receptor (Homo sapiens, UniProt P04150); test: Inhibition of dexamethasone-induced glucocorticoid receptor mediated alkaline phosphatase activity; format: functional
T2 sequence (P04150 whole entry): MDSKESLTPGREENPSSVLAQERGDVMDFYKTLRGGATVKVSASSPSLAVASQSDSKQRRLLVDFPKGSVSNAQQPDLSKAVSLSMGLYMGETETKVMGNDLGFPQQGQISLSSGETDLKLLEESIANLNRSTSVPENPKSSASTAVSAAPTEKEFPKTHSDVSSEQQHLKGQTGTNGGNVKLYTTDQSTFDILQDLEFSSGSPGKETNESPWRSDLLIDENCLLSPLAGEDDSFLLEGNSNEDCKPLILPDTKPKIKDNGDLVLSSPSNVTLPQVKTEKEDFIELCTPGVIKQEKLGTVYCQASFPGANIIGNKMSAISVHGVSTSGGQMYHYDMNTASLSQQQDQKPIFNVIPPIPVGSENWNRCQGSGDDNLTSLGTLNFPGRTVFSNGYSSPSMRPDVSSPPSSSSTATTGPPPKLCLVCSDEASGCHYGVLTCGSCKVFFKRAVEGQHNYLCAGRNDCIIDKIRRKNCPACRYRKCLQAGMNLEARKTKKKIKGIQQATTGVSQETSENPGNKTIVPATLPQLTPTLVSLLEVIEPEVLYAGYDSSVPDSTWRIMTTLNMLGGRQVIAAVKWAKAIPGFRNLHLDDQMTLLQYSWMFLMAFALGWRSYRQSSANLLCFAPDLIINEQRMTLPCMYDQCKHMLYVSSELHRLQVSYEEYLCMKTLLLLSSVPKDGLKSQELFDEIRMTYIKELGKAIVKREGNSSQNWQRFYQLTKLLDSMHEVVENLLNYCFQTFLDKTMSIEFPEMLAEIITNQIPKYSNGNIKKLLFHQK

[3] = molecular target: T2, Glucocorticoid receptor
[4] = molecular target: T3, Progesterone receptor (Homo sapiens, UniProt P06401); test: Inhibition of human progesterone receptor
T3 sequence (P06401 whole entry): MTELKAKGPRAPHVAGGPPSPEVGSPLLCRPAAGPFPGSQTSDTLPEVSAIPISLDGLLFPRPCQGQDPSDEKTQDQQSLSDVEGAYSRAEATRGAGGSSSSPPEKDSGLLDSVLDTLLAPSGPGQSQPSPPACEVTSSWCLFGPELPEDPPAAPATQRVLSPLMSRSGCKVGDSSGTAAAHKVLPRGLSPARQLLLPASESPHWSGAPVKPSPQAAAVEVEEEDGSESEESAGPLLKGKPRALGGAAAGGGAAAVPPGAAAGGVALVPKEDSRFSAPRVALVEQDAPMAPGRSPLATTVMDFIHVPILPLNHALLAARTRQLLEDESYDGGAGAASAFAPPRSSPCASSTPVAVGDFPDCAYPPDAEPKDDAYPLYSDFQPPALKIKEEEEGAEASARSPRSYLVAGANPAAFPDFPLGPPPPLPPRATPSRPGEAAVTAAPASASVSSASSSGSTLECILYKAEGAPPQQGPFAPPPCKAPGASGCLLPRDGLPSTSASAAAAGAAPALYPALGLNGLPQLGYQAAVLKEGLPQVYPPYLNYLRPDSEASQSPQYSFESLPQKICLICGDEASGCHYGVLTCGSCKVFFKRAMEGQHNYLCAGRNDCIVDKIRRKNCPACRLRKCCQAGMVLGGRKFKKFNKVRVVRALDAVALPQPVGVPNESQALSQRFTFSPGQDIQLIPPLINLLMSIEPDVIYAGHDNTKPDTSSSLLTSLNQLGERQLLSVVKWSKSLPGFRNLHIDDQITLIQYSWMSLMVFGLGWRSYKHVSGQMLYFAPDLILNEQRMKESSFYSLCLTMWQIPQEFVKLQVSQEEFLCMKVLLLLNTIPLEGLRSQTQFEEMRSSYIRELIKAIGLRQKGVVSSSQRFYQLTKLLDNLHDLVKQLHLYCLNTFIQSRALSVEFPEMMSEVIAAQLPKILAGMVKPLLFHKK

| SMILES | IC50 [1] [µM] | IC50 [2] [µM] | IC50 [3] [µM] | IC50 [4] [µM] |
| --- | --- | --- | --- | --- |
| Cc1c(NS(C)(=O)=O)cccc1N(Cc1ccc(Oc2ccccc2)cc1)Cc1ccc(F)cc1F | > 30 | – | – | – |
| Cc1c(NS(C)(=O)=O)cccc1N(Cc1ccccc1)Cc1ccc(Oc2ccc(OC[C@@H](O)C[C@@H](O)CC(=O)O)cc2)cc1 | > 30 | 0.3 | 0.0021 | – |
| Cc1c(NS(C)(=O)=O)cccc1N(Cc1ccc(Oc2cccc(OC[C@@H](O)C[C@@H](O)CC(=O)O)c2)cc1)Cc1ccc(F)cc1F | > 30 | 0.76 | 0.015 | – |
| Cc1c(NS(C)(=O)=O)cccc1N(Cc1ccc(Oc2cccc(OC[C@@H]3C[C@@H](O)CC(=O)O3)c2)cc1)Cc1ccc(F)cc1F | > 30 | 0.67 | 0.025 | – |
| CC#C[C@]1(O)CC[C@H]2[C@@H]3CCC4=CC(=O)CCC4=C3[C@@H](c3ccc(N(C)C[C@@H](O)C[C@@H](O)CC(=O)O)cc3)C[C@@]21C | 0.13 | 0.018 | 0.0068 | 0.032 |
| CC#C[C@]1(O)CC[C@H]2[C@@H]3CCC4=CC(=O)CCC4=C3[C@@H](c3ccc(N(C)C[C@@H]4C[C@@H](O)CC(=O)O4)cc3)C[C@@]21C | 0.14 | 0.023 | 0.0023 | 0.0038 |
| Cc1c(NS(C)(=O)=O)cccc1N(Cc1ccccc1)Cc1ccc(Oc2ccc(OC[C@@H]3C[C@@H](O)CC(=O)O3)cc2)cc1 | > 30 | 0.44 | 0.0021 | – |
| CC#C[C@]1(O)CC[C@H]2[C@@H]3CCC4=CC(=O)CCC4=C3[C@@H](c3ccc(N(C)C[C@@H](O)CC(=O)O)cc3)C[C@@]21C | 0.22 | 0.076 | 0.037 | 0.2 |
| CC#C[C@]1(O)CC[C@H]2[C@@H]3CCC4=CC(=O)CCC4=C3[C@@H](c3ccc(OC[C@@H](O)CC(O)CC(=O)O)cc3)C[C@@]21C (single isomer, unassigned) | 0.56 | 2.9 | 0.0092 | 0.047 |

Source: ChEMBL document CHEMBL1137148, “Synthesis, activity, metabolic stability, and pharmacokinetics of glucocorticoid receptor modulator-statin hybrids” (Bioorg Med Chem Lett, 2004)
